The source of these data is patent US20260297081A1, “COMPOUNDS AND METHODS OF TREATING CANCERS” (Cullgen Inc., priority 2023, published 2026).

Common to all, as to type: cell-based
Assay [1] has as its system CCND1, CCND3, CDK4 in T47D cells. Briefly: Immunoblot of CCND1, CCND3, CDK4 protein degradation in T47D cells (FIG. 2A, 48 hours). The conditions noted are these: negative control vs CPD-10. The protocol:
Specific exemplary heterobifunctional compounds were characterized in Calu-1, MCF7, T47D and other cells. Cells that express cyclin D1-3 and CDK4/6 proteins were treated with heterobifunctional compounds disclosed herein at indicated concentrations. MCF7 cells were deprived of serum for 2 hours followed by the treatment with heterobifunctional compounds. Cells were collected, lysed and subject to immunoblotting using an antibody specific to CCND1, CCND2, CCND3, CDK4, or FoxM1, cyclin A2, or phosphorylated Rb (S807/811) proteins. Tubulin or GAPDH was used as the loading control. DMSO treatment was used as the negative control.
To verify that heterobifunctional compound-mediated degradation is dependent on the binding to CDK4-cyclin D complex, a negative control compound, CPD-143, which is derived from active heterobifunctional compound CPD-10 was designed. CPD-143 bears the same DDB1 ligand and linker as CPD-10 but with a modified warhead to impair the binding of the control compound to CDK4.

In assay [2] the test system is Calu-1 cells. Description: Anti-proliferation (viability) of NSCLC Calu-1 cells, 3 days (Table 7, FIG. 2B). In short, it runs like this: (§1)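 Heterobifunctional compounds are tested in 10-point serial dilutions on Calu-1 (3-day exposure) and T47D (6-day exposure) cells.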
Assay [3] deals with T47D cells. Description: Anti-proliferation (viability) of ER+ breast cancer T47D cells, 6 days (Table 7, FIG. 2B). In short, it runs like this: as §1
Assay [4] has as its system MCF7 cells. Briefly: Anti-proliferation (viability) of MCF7 cells (Table 7, FIG. 2B).
In assay [5] the test system is HCC1428 cells. Description: Flow cytometric analysis of Annexin V/7-AAD stained HCC1428 cells (apoptosis), 6 days (FIG. 3B). The conditions noted are these: HCC1428; 400 nM; 6 days. As for the experimental part: T47D cells were treated with DMSO, palbociclib, heterobifunctional compound CPD-10 for 6 days at doses approximating IC50and IC90 concentrations as indicated (FIG. 3A). HCC1428 cells were treated with DMSO, palbociclib, heterobifunctional compound CPD-10, or its negative control compound CPD-143 for 6 days at doses approximating IC90 concentrations as indicated (FIG. 3B). Cells were harvested by trypsinization, staining was carried out using the Annexin V Apoptosis Detection Kit. The percentages of early apoptotic (Annexin V^+7-AAD^−, lower right quadrant), late apoptotic (Annexin V^+7-AAD^+, upper right quadrant) and necrotic cells (Annexin V^−7-AAD^+, upper left quadrant) are indicated on dot plots.

Assay [6] relates to Calu-1 cells. Description: Cell viability / anti-proliferation assay, Calu-1 (Table 7, FIG. 2B). Particulars: 10-point serial dilution, 3-6 days. The protocol:
(§2) NSCLC Calu-1 or ER+ breast cancer T47D cells were treated with selected heterobifunctional compounds following a 10-point serial dilution for 3 or 6 days, respectively.
(§3) Cells were treated with heterobifunctional compounds following a 10-point serial dilution for 3-6 days. In Calu-1 cells, A: anti-proliferation activity IC50≤10 nM; B: anti-proliferation activity IC50<50 nM, and ≥10 nM; C: anti-proliferation activity IC50≥50 nM. In T47D cells, A: anti-proliferation activity IC50≤50 nM; B: anti-proliferation activity IC50≤100 nM, and ≥50 nM; C: anti-proliferation activity IC50≥100 nM; -, data not available.
(§4) Calu-1, MCF7 or T47D cells were seeded in 96-well plates and treated with CPD-10, or CPD-143 following a 10-point serial dilution for 3-6 days (FIG. 2B).
(§5) Calu-1, T47D, MCF7, HCC1428 and other cells were cultured at 37° C. with 5% CO2 in RPMI 1640 or DMEM medium supplemented with 10% fetal bovine serum. […]
(§6) Cells were seeded at a density of 2,000-5,000 cells per well in 96-well assay plates and treated with test compounds following a 10-point serial dilution for 3-6 days. Cell viability was determined using the CellTiter-Lumi assay kit according to the manufacturer's instructions. The dose-response curves were determined and IC50 values were calculated using the GraphPad Prism software following a nonlinear regression (least squares fit) method. […]

For assay [7], the system named is T47D cells. Description: Cell viability / anti-proliferation assay, T47D (Table 7, FIG. 2B). Particulars: 10-point serial dilution, 3-6 days. The protocol:
as §2, §3, §4, §5, §6

In assay [8] the test system is MCF7 cells. Description: Cell viability / anti-proliferation assay, MCF7 (Table 7, FIG. 2B). Particulars: 10-point serial dilution, 3-6 days. The protocol:
as §2, §3, §4, §5, §6

A further assay deals with CCND. Description: CCND degradation in T47D cells with CPD-10 and negative control CPD-143 (FIG. 2A). Particulars: 48 hours, dose range. The protocol:
(§7) T47D cells were treated with a dose range of heterobifunctional compound CPD-10, and its negative control compound CPD-143 for 48 hours (FIG. 2A).
(§8) Cultured cells were washed with cold PBS once and lysed in cold RIPA buffer supplemented with protease inhibitors and phosphatase inhibitors (Beyotime Biotechnology). The solutions were then incubated at 4 ? for 30 min with gentle agitation to fully lysed cells. Cell lysates were centrifuged at 13,000 rpm for 10 min at 4 ? and pellets were discarded. Total protein concentrations in the lysates were determined following BCA assays (Beyotime Biotechnology). Cell lysates were mixed with Laemmli loading buffer and heated at 99° C. for 5 min. Proteins were resolved on SDS-PAGE and visualized using Western ECL Substrate kits on a ChemiDoc MP Imaging system (Bio-Rad). Protein bands were quantitated using the Image Lab software provided by Bio-Rad.

Assay [9] concerns T47D cells. Briefly: Downstream inhibition in T47D cells with CPD-10 and negative control CPD-143 (FIG. 2A). Particulars: 48 hours, dose range. The protocol: as §7, §8
The test system of assay [10] is HCC1428 cells. Description: Annexin V apoptosis flow cytometry, HCC1428 (FIG. 3B). The conditions noted are these: HCC1428, dose approximating IC90, 6 days. As for the experimental part:
T47D cells were treated with DMSO, palbociclib, heterobifunctional compound CPD-10 for 6 days at doses approximating IC50 and IC90 concentrations as indicated (FIG. 3A). HCC1428 cells were treated with DMSO, palbociclib, heterobifunctional compound CPD-10, or its negative control compound CPD-143 for 6 days at doses approximating IC90 concentrations as indicated (FIG. 3B). Cells were harvested by trypsinization, staining was carried out using the Annexin V Apoptosis Detection Kit.
Assays were performed on the CytoFLEX Cytometer (Beckman Coulter), and data were analyzed using CytExpert software. For cell death and apoptosis analysis, cells were harvested by trypsinization, staining was carried out using the Annexin V Apoptosis Detection Kit (BD Biosciences). Briefly, cells were resuspended in 1× binding buffer and incubated with fluorochrome-conjugated Annexin V and 7-AAD for 15 min in darkness at room temperature.

The target in another assay is CDK4 (Homo sapiens, UniProt P11802+Q16531). Briefly: CDK4 percentage degradation in Calu-1 cells (Table 6). Also noted: Cells that express cyclin D1-3 and CDK4/6 proteins were treated with heterobifunctional compounds; endogenous in cells; host or cells: Calu-1. The conditions noted are these: 16 hours. The procedure, abridged:
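Calu-1 cells exposed to heterobifunctional compounds at 40 nM or 200 nM for 16 h. Cyclin D1 and CDK4 levels measured by Western blot of RIPA lysates (BCA-normalised loading), bands quantified by densitometry and expressed as percentage degradation.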

Sequence of CDK4 (P11802 2-303 limits assumed): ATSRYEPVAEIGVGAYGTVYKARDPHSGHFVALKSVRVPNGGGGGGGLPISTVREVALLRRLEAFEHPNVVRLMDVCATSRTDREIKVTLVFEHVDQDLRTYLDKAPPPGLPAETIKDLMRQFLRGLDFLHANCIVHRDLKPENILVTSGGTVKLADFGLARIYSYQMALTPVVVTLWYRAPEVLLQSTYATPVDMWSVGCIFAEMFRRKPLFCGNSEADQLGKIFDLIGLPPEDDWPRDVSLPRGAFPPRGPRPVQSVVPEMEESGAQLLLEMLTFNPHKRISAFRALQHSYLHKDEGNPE
Sequence of CDK4 (P24385 whole entry partner): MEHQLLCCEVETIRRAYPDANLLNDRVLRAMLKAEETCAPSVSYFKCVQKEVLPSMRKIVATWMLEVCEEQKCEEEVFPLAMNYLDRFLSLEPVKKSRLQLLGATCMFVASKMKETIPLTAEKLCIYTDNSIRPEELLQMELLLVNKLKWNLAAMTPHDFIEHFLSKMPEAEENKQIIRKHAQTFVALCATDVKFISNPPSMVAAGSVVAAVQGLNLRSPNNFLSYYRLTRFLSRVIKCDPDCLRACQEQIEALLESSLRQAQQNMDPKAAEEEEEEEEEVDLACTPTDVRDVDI
Sequence of CDK4 (Q16531 2-1140 limits assumed): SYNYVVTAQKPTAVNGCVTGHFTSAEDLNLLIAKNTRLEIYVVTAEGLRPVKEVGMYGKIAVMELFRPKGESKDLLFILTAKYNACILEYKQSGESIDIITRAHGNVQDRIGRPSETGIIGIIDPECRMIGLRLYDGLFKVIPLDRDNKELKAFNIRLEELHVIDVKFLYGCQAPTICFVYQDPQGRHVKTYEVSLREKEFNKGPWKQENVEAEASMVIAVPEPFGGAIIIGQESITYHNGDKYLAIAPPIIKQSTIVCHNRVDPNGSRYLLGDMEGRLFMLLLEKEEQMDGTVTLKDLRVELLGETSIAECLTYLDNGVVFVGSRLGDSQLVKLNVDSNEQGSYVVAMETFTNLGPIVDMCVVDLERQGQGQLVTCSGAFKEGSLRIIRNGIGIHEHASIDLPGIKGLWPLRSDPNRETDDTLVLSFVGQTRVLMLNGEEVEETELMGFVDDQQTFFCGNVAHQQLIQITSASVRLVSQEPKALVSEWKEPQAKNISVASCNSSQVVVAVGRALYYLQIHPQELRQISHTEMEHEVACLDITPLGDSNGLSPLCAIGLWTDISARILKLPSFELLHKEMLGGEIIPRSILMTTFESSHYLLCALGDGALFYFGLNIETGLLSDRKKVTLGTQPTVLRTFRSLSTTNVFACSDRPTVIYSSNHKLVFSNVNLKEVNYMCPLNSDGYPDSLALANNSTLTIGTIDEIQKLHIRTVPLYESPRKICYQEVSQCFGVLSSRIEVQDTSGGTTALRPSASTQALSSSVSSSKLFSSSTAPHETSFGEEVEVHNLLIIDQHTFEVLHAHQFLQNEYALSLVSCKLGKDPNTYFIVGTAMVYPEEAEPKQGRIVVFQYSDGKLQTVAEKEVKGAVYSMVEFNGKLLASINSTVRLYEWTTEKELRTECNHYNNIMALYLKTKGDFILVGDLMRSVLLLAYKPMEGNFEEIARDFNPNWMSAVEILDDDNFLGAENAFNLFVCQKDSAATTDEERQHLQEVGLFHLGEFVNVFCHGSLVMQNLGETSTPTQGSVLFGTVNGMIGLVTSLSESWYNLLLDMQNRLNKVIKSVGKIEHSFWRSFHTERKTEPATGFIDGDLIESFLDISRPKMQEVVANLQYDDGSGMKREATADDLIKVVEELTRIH

In the case of `CNc1ccc(C(=O)Nc2ccc(N(C)C)nn2)c(NCCCCCCCNC(=O)CN2CCN(c3ccc(N(C)c4ncc5c(C)c(C(C)=O)c(=O)n(C6CCCC6)c5n4)nc3)CC2)n1` [CPD-143, 2-((7-(2-(4-(6-((6-acetyl-8-cyclopentyl-5-methyl-7-oxo-7,8-dihydropyrido[2,3-d]pyrimidin-2-yl)(methyl)amino)pyridin-3-yl)piperazin-1-yl)acetamido)heptyl)amino)-N-(6-(dimethylamino)pyridazin-3-yl)-6-(methylamino)nicotinamide], the “fold decrease in DC50 (degradation potency) compared with CPD-10” value in assay [1] is reported as > 100 -fold. The “fold decrease in cellular anti-proliferation activity compared with CPD-10” value in the assay on Calu-1 cells [2] (Calu-1, negative control vs CPD-10, FIG. 2B) is given as > 50 -fold; in the assay with T47D cells [3] (T47D, negative control vs CPD-10, FIG. 2B), > 50 -fold; in the assay on MCF7 cells [4] (MCF7, negative control vs CPD-10, FIG. 2B), > 15 -fold. The IC50 is ≥ 0.05 µM in the assay with Calu-1 cells [2] (Homo sapiens, 72 h, Calu-1 cells, 3 days, 10-point serial dilution, read-out: GI IC50 in Calu-1); ≥ 0.1 µM in the assay on T47D cells [3] (Homo sapiens, 144 h, T47D cells, 6 days, 10-point serial dilution, read-out: GI IC50 in T47D); > 0.1 µM in the assay on MCF7 cells [4] (Homo sapiens, MCF7, MCF7 cells, 3-6 days, 10-point serial dilution, read-out: GI IC50 in MCF-7). Further, the “Annexin V+ population” value with HCC1428 cells [5] was 11.8%. In addition, the “cell viability / anti-proliferation activity” value in the assay on Calu-1 cells [6], with T47D cells [7] and with MCF7 cells [8] was “much weaker cellular anti-proliferation activities” throughout. In addition, the degradation potency entry in the assay with CCND was “much weaker degradation potencies”. Further, the downstream inhibition potency result in the assay on T47D cells [9] is “much weaker degradation potencies and downstream inhibition potencies”. Further, in the assay with HCC1428 cells [10], the cell apoptosis entry is reported as “much less effect on cell apoptosis”. Moreover, the inhibition at 0.04 µM at CDK4 (40 nM) is < 30%. On CDK4 (200 nM), this molecule gave an inhibition at 0.2 µM of 50 to 80%.
